What was measured:
hMAO-A = target: T1, hMAO-A (Homo sapiens, UniProt P21397); test: Recombinant human MAO-A inhibition screening (Amplex Red, p-tyramine); type: biochemical; details: for Selectivity index: IC50 (MAO-A)/IC50 (MAO-B); for IC50: recombinant hMAO-A, p-tyramine substrate, mean SEM
T1 construct: purchased Sigma-Aldrich; host or cells: insect cells (BTI-TN-5B14) infected with recombinant baculovirus
T1 sequence (P21397 1-527): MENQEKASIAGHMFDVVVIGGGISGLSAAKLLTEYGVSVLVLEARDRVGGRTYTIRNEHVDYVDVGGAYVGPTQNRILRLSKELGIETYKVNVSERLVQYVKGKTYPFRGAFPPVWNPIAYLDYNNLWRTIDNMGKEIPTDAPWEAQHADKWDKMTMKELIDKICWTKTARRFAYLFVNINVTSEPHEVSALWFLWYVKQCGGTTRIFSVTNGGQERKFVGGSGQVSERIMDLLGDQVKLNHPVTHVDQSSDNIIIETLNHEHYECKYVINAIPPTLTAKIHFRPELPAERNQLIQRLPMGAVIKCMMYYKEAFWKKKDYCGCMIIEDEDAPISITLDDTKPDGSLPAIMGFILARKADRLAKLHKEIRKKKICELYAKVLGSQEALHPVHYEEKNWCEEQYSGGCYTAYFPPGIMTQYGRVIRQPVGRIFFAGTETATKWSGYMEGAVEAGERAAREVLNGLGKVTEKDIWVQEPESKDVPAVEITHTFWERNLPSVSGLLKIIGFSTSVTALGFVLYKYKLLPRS
Description: (§1) To evaluate IC50 values for the inhibition of human MAO-A and MAO-B by newly synthesized compounds the commercially available recombinant human enzymes expressed in insect cells were used (Sigma-Aldrich). The MAO inhibition assay was based on the method described by Anderson et al., 1993 and Chimenti et al. with some modifications. The Amplex Red MAO Kit tyramine (Sigma-Aldrich) affords a suitable fluorimetric method to evaluate MAO enzyme action of synthetic and natural compounds. In the assay, MAO reacts with p-tyramine, a common substrate for both MAO isoforms, ensuing in the production of H2O2, which is identified by a fluorimetric method (λex = 530/λem = 585 nm). Each test well contained 0.1 mL of sodium phosphate buffer (0.05 M, pH 7.4), a range of concentrations of the eugenol based derivatives or reference compounds along with recombinant hMAO-A or hMAO-B in appropriate quantity. After the preparation of this mixture the wells were subjected to incubation for 15 min at 37 °C, placed in the dark fluorimeter chamber. Once this incubation period over, the process was rendered by mixing 200 µM Amplex Red reagent (Sigma-Aldrich), 1 U/mL horseradish peroxidase (Sigma-Aldrich) and p-tyramine (Sigma-Aldrich). Subsequently, the formation of hydrogen peroxide exerted by MAO isoforms was quantified by using Amplex-Red reagent, a non-fluorescent probe that reacts with H2O2 in the existence of horse radish peroxidase to generate the fluorescent component resorufin. Moreover, the control analysis was calculated in the absence of compound and reference inhibitors. The probability of compounds to change the fluorescence produced in the reaction mix due to non-enzymatic inhibition was assessed by mixing titled compounds to solutions of single Amplex Red reagent in a sodium phosphate buffer. Data were processed in Microsoft Excel, to calculate IC50 values.

hMAO-B = target: T2, hMAO-B (Homo sapiens, UniProt P27338); test: Recombinant human MAO-B inhibition screening (Amplex Red, p-tyramine); type: biochemical; details: p-tyramine substrate, mean SEM
T2 construct: purchased Sigma-Aldrich; host or cells: insect cells (BTI-TN-5B14) infected with recombinant baculovirus
T2 sequence (P27338 1-520): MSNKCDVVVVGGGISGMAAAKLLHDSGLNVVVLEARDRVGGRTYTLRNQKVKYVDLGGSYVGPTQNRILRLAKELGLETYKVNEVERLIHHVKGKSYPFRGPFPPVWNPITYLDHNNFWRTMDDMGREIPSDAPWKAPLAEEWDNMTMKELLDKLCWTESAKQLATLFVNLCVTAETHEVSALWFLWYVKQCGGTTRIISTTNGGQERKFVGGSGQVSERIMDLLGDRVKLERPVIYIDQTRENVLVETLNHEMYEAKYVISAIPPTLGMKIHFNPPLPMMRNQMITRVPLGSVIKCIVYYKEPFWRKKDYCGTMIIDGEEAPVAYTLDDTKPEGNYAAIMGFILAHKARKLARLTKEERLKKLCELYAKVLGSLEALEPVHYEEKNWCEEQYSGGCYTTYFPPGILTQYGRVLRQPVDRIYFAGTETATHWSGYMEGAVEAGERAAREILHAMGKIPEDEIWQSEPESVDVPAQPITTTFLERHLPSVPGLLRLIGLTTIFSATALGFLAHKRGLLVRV
Description: as §1

DPPH scavenging activity = details: Table 6, mean ± SEM, n = 3
Procedure: Solutions of synthesized compounds were set in ethanol/water (1:1) having 10 mM to 100 mM at a period of 10 mM. The 0.01% DPPH· stock solution was prepared in ethanol/water (1:1). Samples were prepared as 5 mL DPPH· solution was mixed with 5 mL L-ascorbic acid solution then shaken vigorously and kept in the dark. Corresponding blank sample were prepared and L-ascorbic acid was used as reference standard. […] The actual decrease in absorption induced by the test was compared with the positive controls. The IC50 values were calculated use the dose inhibition curve in linear range by plotting the extract concentration versus the corresponding scavenging effect through following equation [(ADR − APR)/AO] × 100. Where ADR is the absorbance prior to reaction and APR is the absorbance after reaction with DPPH·.

[1] = Hydrogen peroxide scavenging (H2O2) assay; details: Table 7, mean ± SEM, n = 3
Procedure: Hydrogen peroxide generally turns into water and oxygen and produces highly toxic hydroxyl radical that renders the damage to DNA and peroxidation of lipid. H2O2 scavenging ability of eugenol based derivatives was evaluated by method described by Nakano and colleagues with some alteration. The hydrogen peroxide solution (40 mM) was prepared in phosphate buffer (40 mM pH 7.4) and addition of several ranges of synthesized derivatives (05–80 μg/mL) was done into H2O2 solution (2 mL). The determination of H2O2 concentration was done by UV/Vis Epoch ELISA reader at 230 nm upon incubation of 10 min. Solution of phosphate buffer without H2O2 was noted as blank reading. The hydrogen peroxide percentage inhibition was estimated through the formula [(AH − AD)/AO] × 100, where AH is the absorbance of the control and AD is the absorbance of compounds/reference taken as 05–80 μg/mL L-ascorbic acid.

[2] = Nitric oxide scavenging activity; details: Table 8, mean ± SEM, n = 3
Description: The generation of nitric oxide (NO·) on biological tissues is mediated by particular nitric oxide synthases enzyme that control the catabolism of the arginine to citrulline via creation of NO through a five electron oxidative reaction. At the physiological pH (7.2) in aqueous solution sodium nitroprusside decompose to produce NO·. Finally, NO· reacts with oxygen at underaerobic conditions and produces stable products (nitrate and nitrite), this amount can be determined by means of Griess reagent. The procedure for the nitric oxide scavenging activity was adopted from reports of Alam et al..

[3] = Ferric reducing antioxidant power (FRAP) assay; details: Table 9, mean ± SEM, n = 3;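 further: Ferrous-TPTZ reduction read as absorbance at 593 nm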
Procedure: The capacity of antioxidants to decrease ferric iron is measured by this method. The reaction of […] (TPTZ) and complex ferric iron yields ferrous form at low pH. […] This method was adopted from the reports of Benzie et al..

Selectivity index (hMAO-A) | IC50 (hMAO-A) [µM] | IC50 (hMAO-B) [µM] | DPPH scavenging IC50 (DPPH scavenging activity) [µg/mL] | H2O2 scavenging IC50 [1] [µg/mL] | Nitric oxide scavenging IC50 [2] [µg/mL] | FRAP IC50 [3] [µg/mL] | melting point [°C] | Compound
0.22 | 10.84 ± 0.025 | 47.7 ± 0.073 | 9.514 ± 0.017 | 9.547 ± 0.051 | 9.007 ± 0.014 | 7.234 ± 0.001 | 230 to 231 | C=CCc1ccc(OCC(=O)NNC(=O)c2ccccc2O)c(OC)c1 [Compound 9a, N′-(2-(4-allyl-2-methoxyphenoxy)acetyl)-2-hydroxybenzohydrazide]
0.53 | 15.85 ± 0.039 | 29.37 ± 0.048 | 9.152 ± 0.063 | 9.156 ± 0.002 | 7.156 ± 0.002 | 5.934 ± 0.053 | – | 1-(2-(4-allylphenoxy)acetyl)-4-(4-hydroxybenzoyl)thiosemicarbazide [Compound 5a]
0.67 | 18.06 ± 0.044 | 26.8 ± 0.077 | 11.21 ± 0.044 | 10.33 ± 0.022 | 10.71 ± 0.743 | 9.126 ± 0.013 | 204 to 205 | C=CCc1ccc(OCC(=O)NNC(=O)c2ccccn2)c(OC)c1 [Compound 11, N′-(2-(4-allyl-2-methoxyphenoxy)acetyl)picolinohydrazide]
5.14 | 38.53 ± 0.018 | 7.494 ± 0.014 | 20.66 ± 0.032 | 26.6 ± 0.544 | 20.23 ± 0.073 | 18.14 ± 0.001 | 199 to 200 | C=CCc1ccc(OC(=O)c2ccc(O)c(OC)c2)c(OC)c1 [Compound 13a, 4-allyl-2-methoxyphenyl 4-hydroxy-3-methoxybenzoate]
– | – | – | 8.58 ± 0.009 | 8.121 ± 0.082 | 7.523 ± 0.005 | 8.112 ± 0.091 | – | O=C1O[C@H]([C@@H](O)CO)C(O)=C1O [L-Ascorbic acid, reference compound]
1.49 | 20.89 ± 0.023 | 13.95 ± 0.005 | 14.88 ± 0.018 | 14.4 ± 0.143 | 11.23 ± 0.032 | 12.45 ± 0.017 | 182 to 184 | C=CCc1ccc(OC(=O)c2ccccc2S)c(OC)c1 [Compound 13d, 4-allyl-2-methoxyphenyl 2-mercaptobenzoate]
0.19 | 5.989 ± 0.007 | 31.19 ± 0.016 | 8.304 ± 0.073 | 8.904 ± 0.034 | 6.456 ± 0.023 | 5.112 ± 0.009 | – | C=CCc1ccc(OCC(=O)NNC(=S)NC(=O)c2cc(O)c(O)c(O)c2)c(OC)c1 [Compound 5b]
0.40 | 13.92 ± 0.051 | 34.2 ± 0.037 | 31.30 ± 0.014 | 30.4 ± 0.064 | 25.61 ± 0.076 | 15.91 ± 0.003 | – | C=CCc1ccc(OC(=O)/C=C\c2ccccc2)c(OC)c1 [Compound 17, (Z)-4-allyl-2-methoxyphenyl 3-phenylacrylate]

— publication PMC6661809, “Lead optimization for promising monoamine oxidase inhibitor from eugenol for the treatment of neurological disorder: synthesis and in silico based study” (BMC Chemistry, 2019)
